The test system of assay [1] is PARP. Kind of assay: PARP cleavage (apoptosis indicator) in MOLT4 cells. In kind it is cell-based, Human. The conditions noted are these: 6 h. Here is the method:
(§1) Cells were collected and lysed in RIPA lysis buffer (Cat. #BP-115DG, Boston Bio Products, Ashland, MA, USA) supplemented with protease and phosphatase inhibitor cocktails (Cat. #PPC1010, Sigma-Aldrich, St. Louis, MO, USA). Protein samples were made and immunoblotting was performed as described previously (Khan et al., 2019; Lv et al., 2021). Antibodies purchased from Cell Signaling Technologies (CST) and the dilutions are as follows: Biotin (Cat. No. 5571S, 1:1000), PARP (Cat. No. 9542S, 1:1000), c-Myc (Cat. No. 5605S, 1:1000), MCL1 (Cat. No. 5453S, 1:1000), and ALK (Cat. No. 3791S, 1:1000). KEAP1 antibody was purchased from Proteintech (Cat. No. 10503-2-AP, 1:1000). CDK9 antibody was purchased from Santa Cruz (Cat. No. sc-13130, 1:500). V5-tag antibody was purchased from Bethyl (Cat. No. A190-120P, 1:1000). j-actin antibody was purchased from MP Biomedicals (Cat. No. 8691001, 1:20 000).

The subject of assay [2] is c-Myc and MCl-1. Kind of assay: c-Myc and MCL-1 expression in MOLT4 cells (qPCR and immunoblot). In kind it is cell-based, Human. Here is the method:
as §1
Total RNA was extracted as mentioned above. Reverse transcription and quantitative PCR (qPCR) was performed as described in our previous study (Lv et al., 2021). Primers used for measuring gene transcriptional level: GAPDH primers (forward 5′-[…]-3′ and reverse 5′-[…]-3′) were described previously (Zhang et al., 2018b). MCL1 primers are forward 5′-[…]-3′ and reverse 5′-[…]-3′; MYC primers are forward 5′-[…]-3′ and reverse 5′-[…]-3′.

For assay [3], the target named is T1, CDK9 (Homo sapiens, UniProt P50750). Kind of assay: CDK9 degradation in MOLT4 cells (immunoblot). In kind it is cell-based. Also noted: endogenous in cells; host or cells: MOLT4, 293T, K562, NCI-H1299, LNCaP. As for the experimental part:
All the cell lines were maintained in a humidified incubator at 37° C. and 5% CO2.
Data analysis was performed using GraphPad Prism software (version 9) unless indicated otherwise. All graphs presented represent the mean±standard deviation of the mean (SD) unless otherwise stated.

Assay [4] deals with T1, CDK9. Kind of assay: CDK9 degradation in 293T and K562 cells (immunoblot). Further details: endogenous in cells; host or cells: MOLT4, 293T, K562, NCI-H1299, LNCaP. The class given is cell-based. As for the experimental part:
(§2) Human T-ALL MOLT4 (Cat. No. CRL-1582), K562 (Cat. No. CCL-243), NCI-H1299 (Cat. No. CRL-5803), NCI-H2228 (Cat. No. CRL-5935), LNCaP (Cat. No. CRL-1740), 22RV1 (Cat. No. CRL-2505), PC3 (Cat. No. CRL-1435), DU145 (Cat. No. HTB-81), and epithelial kidney HEK 293T (293T, Cat. No. ACS-4500) cell lines were recently purchased from American Type Culture Collection (ATCC, Manassas, VA, USA). MOLT4, K562, NCI—H-1299, NCI-H2228, LNCap, and 22RV 1 cell lines were cultured in RPMI 1640 medium (Cat No. 22400-089, Thermo Fisher Scientific, Waltham, MA, USA) supplemented with 10% (v/v) heat-inactivated fetal bovine serum (FBS, Cat. No. S11150H, Atlanta Biologicals, Flowery Branch, GA, USA), 100 U/mL penicillin and 100 pig/mL streptomycin (Pen-Strep, Cat. No. 15140122, Thermo Fisher Scientific). PC3 cells were cultured in complete F—12K medium (Kaighn's modification of Ham's F-12 medium, Cat. No. 30-2004, ATCC) supplemented with 10% (v/v) heat-inactivated FBS, 100 U/mL penicillin, and 100 μg/mL streptomycin. DU145 cells were cultured in complete Eagle's Minimum Essential Medium (EMEM, Cat. No. 30-2003, ATCC) supplemented with 10% (v/v) heat-inactivated FBS, 100 U/mL penicillin, and 100 μg/mL streptomycin. 293T cells were cultured in complete Dulbecco's modified Eagle medium (DMEM, Cat. No. 12430054, Thermo Fisher Scientific) with 10% (v/v) heat-inactivated FBS, 100 U/mL penicillin, and 100 μg/mL streptomycin. All the cell lines were maintained in a humidified incubator at 37° C. and 5% CO2.
Cells were collected and lysed in RIPA lysis buffer (Cat. #BP-115DG, Boston Bio Products, Ashland, MA, USA) supplemented with protease and phosphatase inhibitor cocktails (Cat. #PPC1010, Sigma-Aldrich, St. Louis, MO, USA). Protein samples were made and immunoblotting was performed as described previously (Khan et al., 2019; Lv et al., 2021). […]
(§3) Immunoblot data were quantified using the ImageJ (v 1.53a) software from NIH. […]
On the technique in general: A western blot detects proteins with antibodies after separation by electrophoresis.

In assay [5] the target is T1, CDK9. Kind of assay: CDK9 degradation and c-Myc/MCL-1 downregulation in LNCaP cells (immunoblot). The class given is cell-based. Also noted: endogenous in cells; host or cells: MOLT4, 293T, K562, NCI-H1299, LNCaP. As for the experimental part: as §2, with “293T cells were cultured in complete Dulbecco's modified Eagle medium (DMEM, Cat. No. 12430054, Thermo Fisher Scientific) with 10% (v/v) heat-inactivated FBS, 100 U/mL penicillin, and 100 μg/mL streptomycin. All the cell lines were maintained in a humidified incubator at 37° C. and 5% CO2.” left out
as §3

Entries after “also recorded” stand apart in the source; their conditions may differ.

T1 sequence (P50750 whole entry): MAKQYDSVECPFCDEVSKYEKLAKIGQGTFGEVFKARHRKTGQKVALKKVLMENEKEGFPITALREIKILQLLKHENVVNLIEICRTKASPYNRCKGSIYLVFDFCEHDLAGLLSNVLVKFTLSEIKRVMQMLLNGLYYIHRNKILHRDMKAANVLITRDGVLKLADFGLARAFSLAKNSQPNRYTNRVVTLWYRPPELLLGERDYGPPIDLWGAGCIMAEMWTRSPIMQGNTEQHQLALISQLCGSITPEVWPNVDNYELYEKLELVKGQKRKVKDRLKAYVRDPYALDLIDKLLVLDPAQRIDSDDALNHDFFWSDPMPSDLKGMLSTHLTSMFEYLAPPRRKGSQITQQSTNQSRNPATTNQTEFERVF

As a reminder, the DC50 is the concentration at which degradation of the target reaches its halfway point. With `COc1cc(/C=C/C(=O)N2CCC=CC2=O)cc(OC)c1OCCN1CCN(C(=O)CN2CCC(C(=O)Nc3ncc(SCc4ncc(C(C)(C)C)o4)s3)CC2)CC1` [compound 955, (E)-N-(5-(((5-(tert-butyl)oxazol-2-yl)methyl)thio)thiazol-2-yl)-1-(2-(4-(2-(2,6-dimethoxy-4-(3-oxo-3-(6-oxo-3,6-dihydropyridin-1(2H)-yl)prop-1-en-1-yl)phenoxy)ethyl)piperazin-1-yl)-2-oxoethyl)piperidine-4-carboxamide], the “induction of PARP cleavage / apoptotic cell death compared with SNS-032” value in assay [1] is “more apoptotic cell death compared with SNS-032; also recorded: more potent in inducing PARP cleavage than SNS-032”. Besides, in assay [2], the “effectiveness relative to SNS-032 in downregulating c-Myc and MCl-1 (mRNA and protein)” value is on record as approximately 10 times; the “potency relative to SNS-032 in downregulation of c-Myc and MCl-1 (mRNA and protein)” value is reported as “about 10 fold”. Further, in assay [3], the “955-induced CDK9 degradation after pre-treatment with PL or SNS-032” value is recorded as “fully blocked”, the “955-induced CDK9 degradation after pre-treatment with autophagy/lysosome inhibitor Baf-A1 or chloroquine” value is on record as “could not block CDK9 degradation; also recorded: does not block CDK9 degradation”, the “955-induced CDK9 degradation after pre-treatment with neddylation inhibitor MLN4924” value was “could be blocked; also recorded: blocks 955-induced CDK9 degradation” and the “955-induced CDK9 degradation after pre-treatment with pan-caspase inhibitor QVD” value is recorded as “could not block CDK9 degradation; also recorded: does not block CDK9 degradation”. In assay [3], the “955-induced CDK9 degradation after pre-treatment with proteasome inhibitor MG132 or bortezomib” value is “could be blocked; also recorded: can be blocked”; the “955-induced CDK9 degradation with E1 inhibitors PYR-41 and TAK-243” value was “E1-dependent”; the “955-induced CDK9 degradation with KEAP1 inhibitors CDDO-ME, CDDO-IM or DMF” value is reported as “completely blocked”. For the same compound, in assay [3] (955 at 0.1 μM), the “duration of CDK9 degradation effect in the time course” value is “at least 48 hours”. In assay [3] (955 at 0.1 μM, time course), the “time at which CDK9 was completely degraded” value came out at 8 h and the “time to almost complete degradation of CDK9” value is on record as not above 8 h. The “CDK9 degradation with short-term treatment” value in assay [3] (6 h treatment) is reported as “potently degraded CDK9; also recorded: able to potently degrade CDK9”. The DC50 in assay [3] (16 h treatment, from ImageJ-quantified Western blots) is 9 nM. Further, the CDK9 degradation result in assay [3] (immunoblot) is on record as “only 955, degraded CDK9; also recorded: can induce CDK9 degradation”. Moreover, the “duration of CDK9 degradation after removal (washout) of 955” value in assay [3] (washout) is listed as “up to 18 h”. Also, the “dependence of 955-induced CDK9 degradation on the UPS” value in assay [4] (293T and K562 cells, MG132, bortezomib, MLN4924 pre-treatment) was “UPS dependent manner”. Besides, the “CDK9 degradation in 293T cells” value in assay [4] (293T cells, 0.1 μM or 1 μM 955) is “time and dose dependent manner”. Moreover, the “CDK9 degradation in K562 cells” value in assay [4] (K562 cells, 0.1 μM 955) was “time and dose dependent manner”. In addition, in assay [5], the “CDK9 degradation and downregulation of c-Myc and MCL-1” value was “dose-dependent manner; also recorded: potently degraded CDK9 and downregulated c-Myc and MCL-1”.
